Reference: patent publication US20180092947A1, “L-MYC Expression Maintains Self Renewal and Prolongs Multipotency of Primary Human Neural Stem Cells” (priority 2016, published 2018)

Test system: U251 human glioma cells
Experiment: In vitro cytotoxicity assay, CPT-11 alone or with hCElm6 (CellTiter-Glo)
Assay type: cell-based
Details: irinotecan 0-100 μM for 4 hours, then 96 hours drug-free, conditioned medium from CE-expressing LM-NSC008 cells
Text: To explore the therapeutic potential of LM-NSC008 cells, we characterized their migration to tumor-conditioned media in vitro. […] We performed in vitro cytotoxicity assays using human U251 glioma cells and various concentrations of irinotecan alone or in combination with CE derived from LM-NSC008 cells adenovirally transduced to express hCElm6. We observed enhanced irinotecan toxicity (500-fold) in the presence of hCElm6 in the culture media, when compared with CPT-11 alone. CE (hCElm6) activity was measured at 995 nmol/min/ml in the conditioned media derived from LM-NSC008 cells prior to cytotoxicity experiment (FIG. 2D).
Human U251 glioma cell line was used in in vitro cytotoxicity assays as described previously (Metz et al., 2013). Briefly, cells were placed into 96-well plates (5,000 cells per well, in triplicate) in […] of culture media per well and cultured for 24 hours. Irinotecan (CPT-11), diluted in control culture medium or conditioned medium from CE-expressing LM-NSC008 cells, was then added to final concentrations of 0-100 μM. Cells were incubated with irinotecan for 4 hours, after which medium was aspirated and replaced with drug-free fresh medium, and cells were grown for an additional 96 hours. […]

SMILES: CCc1c2c(nc3ccc(OC(=O)N4CCC(N5CCCCC5)CC4)cc13)-c1cc3c(c(=O)n1C2)COC(=O)[C@]3(O)CC [irinotecan]
- enhanced irinotecan toxicity in the presence of hCElm6 compared with CPT-11 alone: 500 fold
